According to EP4206196A1, “PYRIMIDINE SUBSTITUTED DERIVATIVES AS TYK2 INHIBITORS” (Almirall S.A., priority 2021, dated 2023):
pIC50, pKd: −log10 of the molar value. Where “and” joins values, the source holds several entries; their conditions need not be identical. Identical values can stand only once.

Key:
[1] = molecular target: T1, TYK2 (JH2domain-pseudokinase) (Homo sapiens, UniProt P29597); experiment: TYK2 JH2 domain binding assay (KINOMEscan)
T1 construct: TYK2 (JH2domain-pseudokinase)-tagged T7 phage strains were prepared in an E. coli host derived from the BL21 strain; made in house; host or cells: E. coli BL21-derived host (T7 phage) or HEK-293 cells
T1 sequence (P29597 589-875 limits assumed): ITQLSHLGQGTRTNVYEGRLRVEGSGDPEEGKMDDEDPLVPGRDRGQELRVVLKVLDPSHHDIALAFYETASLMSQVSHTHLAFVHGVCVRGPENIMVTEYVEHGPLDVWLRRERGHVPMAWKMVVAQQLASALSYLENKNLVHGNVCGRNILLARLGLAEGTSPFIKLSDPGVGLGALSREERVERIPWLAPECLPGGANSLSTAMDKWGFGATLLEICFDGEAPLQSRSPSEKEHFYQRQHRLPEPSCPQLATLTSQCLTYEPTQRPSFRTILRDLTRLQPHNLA
Method in brief: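 Competition binding of DNA-tagged TYK2 JH2 pseudokinase domain against immobilised affinity ligand, 1 h at room temperature in SeaBlock/PBS/Tween/DTT buffer with about 1% DMSO. Bound kinase eluted and quantified by qPCR. Kd taken from 11-point 3-fold series, usually 30,000 nM top, fitted by Levenberg-Marquardt nonlinear least squares.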

[2] = tested on: STAT1/3 through TYK2/JAK1; experiment: IFNa induced STAT phosphorylation in HEK293 cells (SIE-bla reporter gene); assay type: cell-based; conditions: Homo sapiens, HEK293; HEK293T-sie-bla cells, IFNa at EC80, 4 hours; read-out: Inhibition of IFNa induced STAT phosphorylation HEK293 cells IC50
Method in brief: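 HEK293T cells carrying a SIE-driven β-lactamase reporter were co-treated with compound (1/5 serial dilution, 10 points, 0.1% DMSO final) and IFNa at EC80 for 4 h at 37°C. β-Lactamase substrate was added to stop the stimulation, followed by overnight dark incubation and FRET read. IC50 from a four-parameter logistic fit.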

STAT6 through JAK1/JAK3 = experiment: IL4 induced STAT phosphorylation in Ramos cells (STAT6-bla reporter gene); assay type: cell-based; conditions: for inhibition at 5 µM / inhibition at 25 µM: Homo sapiens, Ramos; for inhibition at 25 µM: compound concentration 25 µM
Protocol: Stimulation of RAMOS cells with interleukine IL-4 activates the signaling pathway of STAT6 through JAK1/JAK3. In this assay, measurement of the activity of the reporter gene β-lactamase expression was used as the readout.
Ramos STAT6-bla RA-1 cell line were purchased from Life Technologies (ref. #K1243) and cultured as specified by the provider. A number of 30.000 cells per well (35 µl) were plated in a 384-well plate (Corning ref.# 3712) and cultured overnight at 37°C with 5% CO2 in a complete Optimem media (Life Technologies ref. #11058-021) containing 556 µg/mL CD40 (Life Technologies ref. #PHP0025), 0.5% (v/v) heat inactivated FBS (Life Technologies ref. #10082-147), 10 µM non-essential aminoacids NEAA (Sigma ref. #M7145), 100 µM Sodium Pyruvate (Gibco ref. #11360-039) and 100 U/mL Penicillin (Sigma ref. #P0781). Compounds were initially dissolved in 100% DMSO. Compound curves were then prepared using a 1/5 serial dilution (10 dilutions). The dilutions were directly diluted in complete Optimem media without CD40 at 40-fold their final concentration in 20% DMSO. IL-4 initial solution (Prepotech ref. #200-04) was prepared at 10-fold its EC80 in complete Optimem media without CD40. Compounds and IL-4 were added simultaneously to the wells with cells and incubated during 4 hours at 37°C (the final DMSO was 0.1%). The β-lactamase substrate (LifeTechnologies ref.#K1138) was prepared at 6-fold its final concentration as specified by the provider. Then 10 µL of the mixture was added to the wells to stop the stimulation. Plate was left in the dark over-night. Then a FRET reading was performed on an appropriate plate reader.
All experiments were analysed using an ExcelFit template and the four-parameter log equation. As % vs compound concentration. TABLE 3: Inhibition of IL4 induced STAT phosphorylation in Ramos cells.

**Q.** What does the source list for `Cc1cc(Nc2cc(Nc3ncc(-c4cnn(C)c4C)cc3N(C)S(C)(=O)=O)ncn2)ncn1` [Example 135, N-[5-(1,5-dimethylpyrazol-4-yl)-2-[[6-[(6-methylpyrimidin-4-yl)amino]pyrimidin-4-yl]amino]-3-pyridyl]-N-methyl-methanesulfonamide]?
**A.** pKd [1]: > 9.70; pIC50 [2]: 6.00 to 7.00; inhibition at 5 µM (STAT6 through JAK1/JAK3; compound concentration 5 µM): 37%

**Q.** How did the pKd [1] turn out when `Cc1cc(Nc2cc(Nc3ncc(-c4cnn(C)c4C)cc3S(C)(=O)=O)ncn2)nc(C)n1` [Example 137, N4-[5-(1,5-dimethylpyrazol-4-yl)-3-methylsulfonyl-2-pyridyl]-N6-(2,6-dimethylpyrimidin-4-yl)pyrimidine-4,6-diamine] was run?
**A.** > 9.70

**Q.** What about the pIC50 [2] of the same compound?
**A.** > 8.00

**Q.** And the inhibition at 25 µM (STAT6 through JAK1/JAK3)?
**A.** 0%

**Q.** What does the source list for `Cc1cc(Nc2cc(Nc3ncccc3S(C)(=O)=O)ncn2)nc(C)n1` [Example 125, N4-(2,6-dimethylpyrimidin-4-yl)-N6-(3-methylsulfonyl-2-pyridyl)pyrimidine-4,6-diamine]?
**A.** pKd [1]: > 9.70; pIC50 [2]: > 8.00; inhibition at 5 µM (STAT6 through JAK1/JAK3; compound concentration 5 µM): 46%

**Q.** Which results are given for `Cc1cc(Nc2cc(Nc3ccc(-c4cnn(C)c4C)cc3N(C)S(C)(=O)=O)ncn2)nc(C)n1` [Example 25, N-[5-(1,5-dimethylpyrazol-4-yl)-2-[[6-[(2,6-dimethylpyrimidin-4-yl)amino]pyrimidin-4-yl]amino]phenyl]-N-methyl-methanesulfonamide]?
**A.** pKd [1]: > 9.70; pIC50 [2]: > 8.00; inhibition at 5 µM (STAT6 through JAK1/JAK3; compound concentration 5 µM): 57%

**Q.** `COc1c(Nc2cc(Nc3cc(C)nc(C)n3)ncn2)cccc1-c1noc(C)n1` [Example 37, N4-(2,6-dimethylpyrimidin-4-yl)-N6-[2-methoxy-3-(5-methyl-1,2,4-oxadiazol-3-yl)phenyl]pyrimidine-4,6-diamine] was tested. Which pKd [1] did it give?
**A.** > 9.70

**Q.** And the pIC50 [2]?
**A.** 7.00 to 8.00

**Q.** And the inhibition at 5 µM (STAT6 through JAK1/JAK3; compound concentration 5 µM)?
**A.** 44%

**Q.** `COc1c(C)cccc1Nc1cc(Nc2cc(C)nc(C)n2)ncn1` [Example 6, N6-(2,6-dimethylpyrimidin-4-yl)-N4-(2-methoxy-3-methyl-phenyl)pyrimidine-4,6-diamine] was tested. Which pKd [1] did it give?
**A.** 9.00 to 9.70

**Q.** What about the pIC50 [2] of the same compound?
**A.** 7.00 to 8.00

**Q.** And the inhibition at 5 µM (STAT6 through JAK1/JAK3; compound concentration 5 µM)?
**A.** 62%

**Q.** Which results are given for `COc1cc(-c2cnn(C)c2C)ccc1Nc1cc(Nc2cc(C)nc(C)n2)ncn1` [Example 80, N6-[4-(1,5-dimethylpyrazol-4-yl)-2-methoxy-phenyl]-N4-(2,6-dimethylpyrimidin-4-yl)pyrimidine-4,6-diamine]?
**A.** pKd [1]: > 9.70; pIC50 [2]: 7.00 to 8.00; inhibition at 5 µM (STAT6 through JAK1/JAK3; compound concentration 5 µM): 47%

**Q.** How did the pKd [1] turn out when `Cc1cc(Nc2cc(Nc3ccccc3N(C)S(C)(=O)=O)ncn2)nc(C)n1` [Example 12, N-[2-[[6-[(2,6-dimethylpyrimidin-4-yl)amino]pyrimidin-4-yl]amino]phenyl]-N-methyl-methanesulfonamide] was run?
**A.** > 9.70

**Q.** What about the pIC50 [2] of the same compound?
**A.** < 6.00

**Q.** And the inhibition at 5 µM (STAT6 through JAK1/JAK3; compound concentration 5 µM)?
**A.** 46%

**Q.** How did the pKd [1] turn out when `Cc1c(-c2cnc(Nc3cc(Nc4ccc(F)cn4)ncn3)c(N(C)S(C)(=O)=O)c2)cnn1C` [Example 138, N-[5-(1,5-dimethylpyrazol-4-yl)-2-[[6-[(5-fluoro-2-pyridyl)amino]pyrimidin-4-yl]amino]-3-pyridyl]-N-methyl-methanesulfonamide] was run?
**A.** > 9.70

**Q.** What about the pIC50 [2] of the same compound?
**A.** > 8.00

**Q.** What about the inhibition at 5 µM (STAT6 through JAK1/JAK3; compound concentration 5 µM) of the same compound?
**A.** 6%

**Q.** What does the source list for `Cc1cc(Nc2cc(Nc3ncc(-c4cnn(C)c4C)cc3N(C)S(C)(=O)=O)ncn2)ncc1F` [Example 103, N-[5-(1,5-dimethylpyrazol-4-yl)-2-[[6-[(5-fluoro-4-methyl-2-pyridyl)amino]pyrimidin-4-yl]amino]-3-pyridyl]-N-methyl-methanesulfonamide]?
**A.** pKd [1]: > 9.70; pIC50 [2]: > 8.00; inhibition at 5 µM (STAT6 through JAK1/JAK3; compound concentration 5 µM): 49%

**Q.** `Cc1cc(Nc2cc(Nc3ccc(C4CC4)cc3N(C)S(C)(=O)=O)ncn2)nc(C)n1` [Example 70, N-[5-cyclopropyl-2-[[6-[(2,6-dimethylpyrimidin-4-yl)amino]pyrimidin-4-yl]amino]phenyl]-N-methyl-methanesulfonamide] was tested. Which pKd [1] did it give?
**A.** > 9.70

**Q.** What about the pIC50 [2] of the same compound?
**A.** > 8.00

**Q.** And the “% Inhibition of IL4 induced STAT phosphorylation Ramos cells” value (STAT6 through JAK1/JAK3; compound concentration 5 µM, 5 µM)?
**A.** 78% and 55%

**Q.** What does the source list for `Cc1cc(Nc2cc(Nc3ncc(-c4cnn(C)c4C)cc3N(C)S(C)(=O)=O)ncn2)nc(C)n1` [Example 124, N-[5-(1,5-dimethylpyrazol-4-yl)-2-[[6-[(2,6-dimethylpyrimidin-4-yl)amino]pyrimidin-4-yl]amino]-3-pyridyl]-N-methyl-methanesulfonamide]?
**A.** pKd [1]: > 9.70; pIC50 [2]: > 8.00; inhibition at 5 µM (STAT6 through JAK1/JAK3; compound concentration 5 µM): 50%

**Q.** With `Cc1cc(Nc2cc(Nc3ncc(-c4cnn(C)c4)cc3N(C)S(C)(=O)=O)ncn2)nc(C)n1` [Example 126, N-[2-[[6-[(2,6-dimethylpyrimidin-4-yl)amino]pyrimidin-4-yl]amino]-5-(1-methylpyrazol-4-yl)-3-pyridyl]-N-methyl-methanesulfonamide] as the compound, how does the pKd [1] read?
**A.** > 9.70

**Q.** And the pIC50 [2]?
**A.** > 8.00

**Q.** What about the inhibition at 25 µM (STAT6 through JAK1/JAK3) of the same compound?
**A.** 54%

**Q.** `Cc1c(-c2cnc(Nc3cc(NC(=O)C4CC4)ncn3)c(N(C)S(C)(=O)=O)c2)cnn1C` [Example 139, N-[6-[[5-(1,5-dimethylpyrazol-4-yl)-3-[methyl(methylsulfonyl)amino]-2-pyridyl]amino]pyrimidin-4-yl]cyclopropanecarboxamide] was tested. Which pKd [1] did it give?
**A.** > 9.70

**Q.** What about the pIC50 [2] of the same compound?
**A.** > 8.00

**Q.** And the inhibition at 5 µM (STAT6 through JAK1/JAK3; compound concentration 5 µM)?
**A.** 28%

**Q.** Which results are given for `COc1c(Nc2cc(NC(=O)C3CC3)ncn2)cccc1-c1ncn(C)n1` [Example 1, N-[6-[2-methoxy-3-(1-methyl-1,2,4-triazol-3-yl)anilino]pyrimidin-4-yl]cyclopropanecarboxamide]?
**A.** pKd [1]: 8.00 to 9.00; pIC50 [2]: 6.00 to 7.00; inhibition at 5 µM (STAT6 through JAK1/JAK3; compound concentration 5 µM): 25%

**Q.** With `COc1c(Nc2cc(Nc3cc(C)nc(C)n3)ncn2)cccc1-c1ncn(C)n1` [Example 4, N6-(2,6-dimethylpyrimidin-4-yl)-N4-[2-methoxy-3-(1-methyl-1,2,4-triazol-3-yl)phenyl]pyrimidine-4,6-diamine] as the compound, how does the pKd [1] read?
**A.** 9.00 to 9.70

**Q.** What about the pIC50 [2] of the same compound?
**A.** 7.00 to 8.00

**Q.** What about the inhibition at 5 µM (STAT6 through JAK1/JAK3; compound concentration 5 µM) of the same compound?
**A.** 33%

**Q.** Which results are given for `Cc1cc(Nc2cc(Nc3ccc(-c4cnn(C)c4C)cc3S(C)(=O)=O)ncn2)nc(C)n1` [Example 86, N4-[4-(1,5-dimethylpyrazol-4-yl)-2-methylsulfonyl-phenyl]-N6-(2,6-dimethylpyrimidin-4-yl)pyrimidine-4,6-diamine]?
**A.** pKd [1]: > 9.70; pIC50 [2]: > 8.00; inhibition at 25 µM (STAT6 through JAK1/JAK3): 78%

**Q.** With `CN(c1ccccc1Nc1cc(Nc2cccc(C#N)n2)ncn1)S(C)(=O)=O` [Example 32, N-[2-[[6-[(6-cyano-2-pyridyl)amino]pyrimidin-4-yl]amino]phenyl]-N-methyl-methanesulfonamide] as the compound, how does the pKd [1] read?
**A.** > 9.70

**Q.** What about the pIC50 [2] of the same compound?
**A.** > 8.00

**Q.** What about the inhibition at 5 µM (STAT6 through JAK1/JAK3; compound concentration 5 µM) of the same compound?
**A.** 70%

**Q.** With `COc1c(-c2ncn(C)n2)ccnc1Nc1cc(Nc2cc(C)nc(C)n2)ncn1` [Example 119, N6-(2,6-dimethylpyrimidin-4-yl)-N4-[3-methoxy-4-(1-methyl-1,2,4-triazol-3-yl)-2-pyridyl]pyrimidine-4,6-diamine] as the compound, how does the pKd [1] read?
**A.** > 9.70

**Q.** What about the pIC50 [2] of the same compound?
**A.** > 8.00

**Q.** And the inhibition at 5 µM (STAT6 through JAK1/JAK3; compound concentration 5 µM)?
**A.** 47%

**Q.** `CN(c1ccccc1Nc1cc(NC(=O)C2CC2)ncn1)S(C)(=O)=O` [Example 14, N-[6-[2-[methyl(methylsulfonyl)amino]anilino]pyrimidin-4-yl]cyclopropanecarboxamide] was tested. Which pKd [1] did it give?
**A.** 9.00 to 9.70

**Q.** What about the pIC50 [2] of the same compound?
**A.** 6.00 to 7.00

**Q.** `Cc1cc(Nc2cc(Nc3ncc(-c4ocnc4C)cc3N(C)S(C)(=O)=O)ncn2)nc(C)n1` [Example 170, N-[2-[[6-[(2,6-dimethylpyrimidin-4-yl)amino]pyrimidin-4-yl]amino]-5-(4-methyl-1,3-oxazol-5-yl)pyridin-3-yl]-N-methylmethanesulfonamide] was tested. Which pKd [1] did it give?
**A.** > 9.70

**Q.** What about the pIC50 [2] of the same compound?
**A.** 7.00 to 8.00
